Assay results published in publication PMC3251925 (Bioorganic & medicinal chemistry, 2011).
Where two headings read alike, the source gives them in different places.

What was measured:
Edema Factor (EF) [1] = target: T1, Edema Factor (EF) (Bacillus anthracis, UniProt P40136); test: cell-based; assay type: cell-based
[2] = test system: enterotoxigenic E.coli (ETEC); assay type: in vivo; conditions: assuming 5 ml serum/mouse
[3] = test system: human GADD45α gene-GFP reporter in TK6 cells (GenM-T01, GenM-C01)
RAW 264.7 cells = conditions: added alone, at the highest dose tested
Edema Factor (EF) [4] = target: T1, Edema Factor (EF); conditions: read-out: IC50, inhibition of cAMP production induced by edema toxin; cited from earlier work
[5] = test system: enterotoxigenic E.coli (ETEC); conditions: cited from earlier work
cholera toxin = conditions: cited from earlier work
[6] = in vivo; cited from earlier work

T1 sequence (P40136 whole entry, looked up): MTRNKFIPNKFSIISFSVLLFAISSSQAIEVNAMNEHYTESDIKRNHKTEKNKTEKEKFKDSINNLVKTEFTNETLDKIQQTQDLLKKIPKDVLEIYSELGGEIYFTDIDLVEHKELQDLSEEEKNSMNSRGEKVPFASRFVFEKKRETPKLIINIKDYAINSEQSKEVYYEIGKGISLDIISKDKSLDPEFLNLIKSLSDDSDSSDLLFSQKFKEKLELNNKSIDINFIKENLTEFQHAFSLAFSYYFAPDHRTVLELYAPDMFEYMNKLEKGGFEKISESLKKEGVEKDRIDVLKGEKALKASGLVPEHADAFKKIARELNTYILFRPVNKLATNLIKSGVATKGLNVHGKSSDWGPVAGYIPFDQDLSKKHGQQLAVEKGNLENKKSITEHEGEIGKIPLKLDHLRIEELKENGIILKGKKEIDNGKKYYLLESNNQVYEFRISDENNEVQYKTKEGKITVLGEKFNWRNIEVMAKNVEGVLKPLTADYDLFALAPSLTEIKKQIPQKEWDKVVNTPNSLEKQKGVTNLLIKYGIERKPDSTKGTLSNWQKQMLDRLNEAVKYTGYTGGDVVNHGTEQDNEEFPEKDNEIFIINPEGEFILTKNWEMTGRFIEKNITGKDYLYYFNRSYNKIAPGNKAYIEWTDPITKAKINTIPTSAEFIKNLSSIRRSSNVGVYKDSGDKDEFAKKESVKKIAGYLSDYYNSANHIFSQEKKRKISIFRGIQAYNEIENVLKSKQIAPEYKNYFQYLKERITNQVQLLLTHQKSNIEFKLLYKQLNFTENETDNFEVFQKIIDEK

3-[(Biphenyl-3-carbonyl)-amino]-benzoic acid [Compound 2]
IC50 (Edema Factor (EF) [1]; read-out: IC50 (μM) Assay 1): 19 µM

O=C(O)c1cccc(NC(=O)c2cccc3c2C(=O)c2ccccc2-3)c1 [Compound 1, 3-(9-oxo-9H-fluorene-1-carboxamido)benzoic acid]
IC50 (Edema Factor (EF) [1]): 1.64 to 12.3 µM | Active dose in mice expressed as concentration [2]: about 3 μg/ml | Mutagenicity (tester strain TAMix): non-mutagenic | Number of revertants (tester strain TAMix): doubling | Concentration determined to be cytotoxic [3]: 62.5 µg/mL | Concentration with genotoxic activity (positive response) [3]: 62.5 µg/mL | Obvious toxicity to cultured cells (RAW 264.7 cells): no obvious toxic effect | IC50 (Edema Factor (EF) [4]): 2 to 9 µM | Effective dose to reduce diarrhea in mice (from ETEC) ([5]; intraperitoneally or by gavage, per mouse): 7.5 to 15 µg | Diarrhea caused by ETEC ([5]; mouse, oral gavage dose of 15 μg/mouse): reduced diarrhea | Levels of bacteria in the colons of infected and treated mice ([5]; versus mice that did not receive the compound): much lower | Inhibition of cholera toxin (cholera toxin): inhibits cholera toxin | Obvious toxic effect in mouse studies [6]: no obvious toxic effect

O=C(Nc1ccccc1)c1cccc2c1C(=O)c1ccccc1-2 [Compound 4, 9-oxo-N-phenyl-9H-fluorene-1-carboxamide]
EF inhibitory activity, in words (Edema Factor (EF) [1]): relatively inactive

Nc1ccc(NC(=O)c2cccc3c2C(=O)c2ccccc2-3)c(C(=O)O)c1 [Compound 6, 5-Amino-2-(9-oxo-9H-fluorene-1-carboxamido)benzoic acid]
EF inhibitory activity, in words (Edema Factor (EF) [1]): inactive

O=C(O)c1cc(NC(=O)c2cccc3c2C(=O)c2ccccc2-3)ccc1O [Compound 9, 2-Hydroxy-5-(9-oxo-9H-fluorene-1-carboxamido)benzoic acid]
EF inhibitory activity, in words (Edema Factor (EF) [1]): inactive

Nc1cc(NC(=O)c2cccc3c2C(=O)c2ccccc2-3)cc(C(=O)O)c1 [Compound 10, 3-amino-5-(9-oxo-9H-fluorene-1-carboxamido)benzoic acid]
IC50 (Edema Factor (EF) [1]): 1.3 µM | Obvious toxicity to cultured cells (RAW 264.7 cells): neither caused obvious toxicity

COC(=O)c1cc(NC(=O)c2cccc3c2C(=O)c2ccccc2-3)ccc1O [Compound 14, Methyl 2-hydroxy-5-(9-oxo-9H-fluorene-1-carboxamido)benzoate]
EF inhibitory activity, in words (Edema Factor (EF) [1]): completely inactive | IC50 (Edema Factor (EF) [1]): 249 µM

CN(C)c1cccc(NC(=O)c2cccc3c2C(=O)c2ccccc2-3)c1 [Compound 19, N-(3-(dimethylamino)phenyl)-9-oxo-9H-fluorene-1-carboxamide]
Obvious toxicity to cultured cells (RAW 264.7 cells): neither caused obvious toxicity
